{"source": "ChEMBL document CHEMBL1201862", "about": "“PubChem BioAssay data set” (2004)", "key": {"[1]": {"biological_target": "T1, Heat shock factor protein 1 (Mus musculus, UniProt P38532)", "T1 sequence (P38532 whole entry)": "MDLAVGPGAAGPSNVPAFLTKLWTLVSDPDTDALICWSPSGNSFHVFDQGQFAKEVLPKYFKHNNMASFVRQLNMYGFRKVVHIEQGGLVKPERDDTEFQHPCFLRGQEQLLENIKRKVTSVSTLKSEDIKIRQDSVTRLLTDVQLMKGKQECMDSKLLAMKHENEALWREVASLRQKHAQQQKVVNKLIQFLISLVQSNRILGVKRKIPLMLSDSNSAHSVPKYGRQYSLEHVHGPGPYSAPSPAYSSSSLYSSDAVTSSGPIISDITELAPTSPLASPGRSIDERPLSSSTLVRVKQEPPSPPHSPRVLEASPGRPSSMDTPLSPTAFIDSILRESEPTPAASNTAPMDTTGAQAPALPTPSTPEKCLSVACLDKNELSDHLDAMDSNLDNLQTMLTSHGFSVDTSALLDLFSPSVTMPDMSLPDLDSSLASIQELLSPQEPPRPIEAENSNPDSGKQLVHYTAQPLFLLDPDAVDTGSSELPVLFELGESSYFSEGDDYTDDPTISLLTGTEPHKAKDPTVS", "experiment": "HSF1 potentiators in luciferase reporter cells, confirmation, cell-based, NIH3T3, luminescence, dose retest (AID 435004);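 note: stress induced by proteasome inhibitor MG132 added 30 min after compound; actives raise luminescence as potentiators of the MG132 stress response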", "assay_type": "functional"}, "[2]": {"biological_target": "Heat shock protein HSP 90-alpha (Homo sapiens, UniProt P07900)", "assay_type": "functional, organism-based"}, "Beta-galactosidase": {"biological_target": "Beta-galactosidase (Escherichia coli, UniProt Q8VNN2)", "sequence (Q8VNN2 whole entry)": "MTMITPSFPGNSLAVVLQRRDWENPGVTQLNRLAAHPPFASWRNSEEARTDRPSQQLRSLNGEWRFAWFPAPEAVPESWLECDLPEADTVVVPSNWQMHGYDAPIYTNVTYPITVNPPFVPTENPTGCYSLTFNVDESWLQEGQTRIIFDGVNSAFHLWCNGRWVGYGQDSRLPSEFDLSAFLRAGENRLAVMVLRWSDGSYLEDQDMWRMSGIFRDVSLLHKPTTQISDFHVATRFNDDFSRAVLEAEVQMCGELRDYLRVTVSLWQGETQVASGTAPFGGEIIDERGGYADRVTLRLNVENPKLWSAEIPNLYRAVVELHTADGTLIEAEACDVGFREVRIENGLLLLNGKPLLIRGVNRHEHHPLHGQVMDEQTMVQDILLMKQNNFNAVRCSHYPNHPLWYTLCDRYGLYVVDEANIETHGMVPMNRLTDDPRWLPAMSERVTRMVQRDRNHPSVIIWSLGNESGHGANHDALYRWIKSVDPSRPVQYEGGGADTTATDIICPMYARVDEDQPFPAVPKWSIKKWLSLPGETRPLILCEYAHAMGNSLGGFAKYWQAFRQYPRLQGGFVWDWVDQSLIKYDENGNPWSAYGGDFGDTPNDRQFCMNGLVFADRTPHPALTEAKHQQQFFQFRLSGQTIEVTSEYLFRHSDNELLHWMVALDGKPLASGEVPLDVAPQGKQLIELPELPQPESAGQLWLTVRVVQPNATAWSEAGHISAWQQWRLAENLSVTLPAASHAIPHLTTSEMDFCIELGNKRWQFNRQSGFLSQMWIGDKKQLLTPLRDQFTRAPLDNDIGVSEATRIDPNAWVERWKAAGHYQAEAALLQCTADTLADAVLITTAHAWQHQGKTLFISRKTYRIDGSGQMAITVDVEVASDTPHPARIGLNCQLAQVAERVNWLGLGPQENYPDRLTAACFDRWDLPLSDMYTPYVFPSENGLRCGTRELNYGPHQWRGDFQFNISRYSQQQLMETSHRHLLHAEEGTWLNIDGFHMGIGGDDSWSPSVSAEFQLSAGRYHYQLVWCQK", "assay_type": "functional"}, "[3]": {"biological_target": "Sphingosine 1-phosphate receptor 2 (Homo sapiens, UniProt O95136)", "sequence (O95136 whole entry)": "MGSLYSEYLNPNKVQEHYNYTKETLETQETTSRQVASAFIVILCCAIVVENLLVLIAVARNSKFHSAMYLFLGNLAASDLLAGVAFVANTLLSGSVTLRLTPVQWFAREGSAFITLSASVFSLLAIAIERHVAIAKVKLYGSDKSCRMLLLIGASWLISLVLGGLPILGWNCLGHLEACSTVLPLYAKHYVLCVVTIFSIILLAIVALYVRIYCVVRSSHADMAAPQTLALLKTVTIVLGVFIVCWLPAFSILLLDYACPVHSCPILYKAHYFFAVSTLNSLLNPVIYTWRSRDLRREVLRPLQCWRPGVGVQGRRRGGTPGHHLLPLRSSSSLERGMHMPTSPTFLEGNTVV", "experiment": "Dose Response Cell Based Assay for Antagonists of the S1P2 Receptor. [Related pubchem assays: 856, 736 ]", "assay_type": "functional"}, "[4]": {"biological_target": "T2, Kappa-type opioid receptor (Homo sapiens, UniProt P41145)", "T2 sequence (P41145 whole entry)": "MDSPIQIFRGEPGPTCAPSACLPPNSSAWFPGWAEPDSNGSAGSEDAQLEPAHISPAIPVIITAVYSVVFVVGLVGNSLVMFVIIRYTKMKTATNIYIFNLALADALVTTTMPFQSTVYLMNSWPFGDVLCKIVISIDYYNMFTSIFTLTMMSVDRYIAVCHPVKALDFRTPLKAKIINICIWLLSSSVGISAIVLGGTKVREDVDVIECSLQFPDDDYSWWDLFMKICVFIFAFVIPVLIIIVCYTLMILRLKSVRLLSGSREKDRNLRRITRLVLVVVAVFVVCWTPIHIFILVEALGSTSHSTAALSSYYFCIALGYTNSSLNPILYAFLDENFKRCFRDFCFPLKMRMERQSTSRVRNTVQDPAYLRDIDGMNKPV", "assay_type": "functional"}, "[5]": {"biological_target": "T2, Kappa-type opioid receptor", "assay_type": "functional", "remark": "listed apart in the source"}, "[6]": {"biological_target": "Female germline-specific tumor suppressor gld-1 (Caenorhabditis elegans, UniProt Q17339)", "sequence (Q17339 whole entry)": "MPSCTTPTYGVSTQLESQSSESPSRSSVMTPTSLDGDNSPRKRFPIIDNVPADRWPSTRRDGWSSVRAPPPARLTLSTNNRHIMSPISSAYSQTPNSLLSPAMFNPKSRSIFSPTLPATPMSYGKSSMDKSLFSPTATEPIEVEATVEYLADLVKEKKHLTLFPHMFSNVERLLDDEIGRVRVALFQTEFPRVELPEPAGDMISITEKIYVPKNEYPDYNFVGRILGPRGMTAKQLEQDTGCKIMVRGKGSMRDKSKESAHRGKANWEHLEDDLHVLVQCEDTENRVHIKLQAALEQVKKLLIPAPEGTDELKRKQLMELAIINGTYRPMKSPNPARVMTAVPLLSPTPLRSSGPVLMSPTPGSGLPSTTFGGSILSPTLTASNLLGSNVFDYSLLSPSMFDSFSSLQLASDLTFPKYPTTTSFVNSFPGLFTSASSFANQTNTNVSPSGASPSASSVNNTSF", "experiment": "inhibitors of GLD-1 binding to TGE RNA, dose response, biochemical, fluorescence polarization, C. elegans (AID 2802);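 note: fluorescence polarization of labeled TGE RNA bound by purified gld-1 protein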"}, "Protein Rev": {"biological_target": "Protein Rev (Human immunodeficiency virus type 1 group M subtype B (isolate HXB2)(HIV-1), UniProt P04618)", "sequence (P04618 whole entry)": "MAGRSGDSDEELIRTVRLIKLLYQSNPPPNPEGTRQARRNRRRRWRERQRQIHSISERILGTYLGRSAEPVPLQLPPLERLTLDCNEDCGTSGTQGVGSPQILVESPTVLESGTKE", "experiment": "inhibitors of Rev binding to RRE RNA, dose response, biochemical, fluorescence polarization, HIV-1 (AID 434976)", "parameters": "species or system Human immunodeficiency virus 1"}, "[7]": {"biological_target": "T3, Endoribonuclease toxin MazF (Escherichia coli K-12, UniProt P0AE70)", "T3 sequence (P0AE70 whole entry)": "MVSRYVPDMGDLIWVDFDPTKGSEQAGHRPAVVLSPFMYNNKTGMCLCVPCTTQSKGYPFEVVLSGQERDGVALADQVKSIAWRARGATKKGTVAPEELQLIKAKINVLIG", "experiment": "fluorescent RNA oligo signal without MazF, dose response, counter-screen for MazEF activator project, biochemical, fluorescence, single-stranded RNase substrate (AID 588502)", "assay_type": "functional"}, "[8]": {"biological_target": "T3, Endoribonuclease toxin MazF", "experiment": "MazF toxin RNase activators, dose response, biochemical, fluorescence, single-stranded RNA substrate, uHTS hits (AID 588481)", "assay_type": "functional"}, "SUMO-activating enzyme [9]": {"biological_target": "T4, SUMO-activating enzyme (Homo sapiens, UniProt Q9UBT2)", "T4 sequence (Q9UBE0 whole entry)": "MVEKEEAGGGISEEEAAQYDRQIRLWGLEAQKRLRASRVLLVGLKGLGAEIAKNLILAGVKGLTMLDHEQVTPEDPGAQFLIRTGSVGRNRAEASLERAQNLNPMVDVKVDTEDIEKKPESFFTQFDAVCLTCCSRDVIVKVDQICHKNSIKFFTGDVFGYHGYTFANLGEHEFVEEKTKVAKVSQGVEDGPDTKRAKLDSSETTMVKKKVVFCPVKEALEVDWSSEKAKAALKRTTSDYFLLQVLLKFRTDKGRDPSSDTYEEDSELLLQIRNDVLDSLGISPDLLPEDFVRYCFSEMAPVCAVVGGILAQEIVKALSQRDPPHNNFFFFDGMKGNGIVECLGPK", "T4 sequence (Q9UBT2 whole entry)": "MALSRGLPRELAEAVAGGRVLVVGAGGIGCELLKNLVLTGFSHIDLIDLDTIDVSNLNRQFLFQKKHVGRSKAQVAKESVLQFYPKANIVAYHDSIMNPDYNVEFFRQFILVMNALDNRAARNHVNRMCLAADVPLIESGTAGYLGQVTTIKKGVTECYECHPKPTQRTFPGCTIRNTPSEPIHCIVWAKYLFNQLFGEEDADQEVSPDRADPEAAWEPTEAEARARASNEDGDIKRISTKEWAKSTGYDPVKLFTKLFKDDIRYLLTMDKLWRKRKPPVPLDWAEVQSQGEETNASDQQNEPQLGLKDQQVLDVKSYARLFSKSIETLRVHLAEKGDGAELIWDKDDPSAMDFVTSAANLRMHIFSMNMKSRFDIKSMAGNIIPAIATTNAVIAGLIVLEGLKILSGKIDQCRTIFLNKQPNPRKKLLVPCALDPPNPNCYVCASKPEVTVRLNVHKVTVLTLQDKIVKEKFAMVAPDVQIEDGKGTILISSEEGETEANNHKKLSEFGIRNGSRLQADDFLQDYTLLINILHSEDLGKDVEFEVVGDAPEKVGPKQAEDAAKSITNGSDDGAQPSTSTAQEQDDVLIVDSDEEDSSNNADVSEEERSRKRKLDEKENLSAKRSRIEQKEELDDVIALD", "experiment": "inhibitors of in vitro SUMOylation cascade, primary screen, biochemical, HTRF, uHTS (AID 2006)", "assay_type": "protein-complex assay"}, "[10]": {"biological_target": "Induced myeloid leukemia cell differentiation protein Mcl-1 (Homo sapiens, UniProt Q07820)", "sequence (Q07820 whole entry)": "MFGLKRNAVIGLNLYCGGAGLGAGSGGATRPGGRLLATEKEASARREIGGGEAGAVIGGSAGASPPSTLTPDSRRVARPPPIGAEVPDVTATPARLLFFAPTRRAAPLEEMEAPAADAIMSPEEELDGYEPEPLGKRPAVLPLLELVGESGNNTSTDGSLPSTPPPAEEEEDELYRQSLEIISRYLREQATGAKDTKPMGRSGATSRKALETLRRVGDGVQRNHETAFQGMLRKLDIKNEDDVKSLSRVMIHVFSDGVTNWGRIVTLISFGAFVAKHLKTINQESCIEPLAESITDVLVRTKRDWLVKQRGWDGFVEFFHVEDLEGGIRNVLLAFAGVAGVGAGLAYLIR", "assay_type": "functional"}, "SUMO-activating enzyme [11]": {"biological_target": "T4, SUMO-activating enzyme", "experiment": "SUMOylation inhibitor hit validation, confirmation, SUMOylation inhibitor project, biochemical, AlphaScreen (AID 2018)", "assay_type": "functional"}}, "note": "Calls of active or inactive are those of the source."}
{"molecule": "O=C(C#Cc1cccc([N+](=O)[O-])c1)c1ccccc1", "values": [{"measurement": "EC50", "setting": "[1]", "value": "1.08 µM (inconclusive)"}, {"measurement": "AC50", "setting": "[2]", "value": "0.592 µM (active)"}, {"measurement": "EC50", "setting": "Beta-galactosidase", "value": "> 31.5 µM (inactive)"}, {"measurement": "IC50", "setting": "[3]", "value": "3.69 µM (active)"}, {"measurement": "IC50", "setting": "[4]", "value": "22.8 µM (inactive)"}, {"measurement": "IC50", "setting": "[5]", "value": "> 32", "unit": "µM"}]}
{"molecule": "COc1ccc(N2CCCC2)c(NC(=O)c2ccc(Br)o2)c1", "values": [{"measurement": "IC50", "setting": "[6]", "value": "21.3 µM (inactive)"}, {"measurement": "IC50", "setting": "Protein Rev", "value": "> 75.4 µM (not active)"}, {"measurement": "EC50", "setting": "[7]", "value": "> 99 µM (inactive)"}, {"measurement": "EC50", "setting": "[8]", "value": "> 99 µM (inactive)"}]}
{"molecule": "Cc1cc(=O)oc2cc(OCc3ccc(C(=O)OCC(=O)Nc4ccc(N(C)C)cc4)cc3)ccc12", "values": [{"measurement": "IC50", "setting": "SUMO-activating enzyme [9]", "value": "22.1 µM (active)"}, {"measurement": "IC50", "setting": "[10]", "value": "6.17 µM (active)"}, {"measurement": "IC50", "setting": "SUMO-activating enzyme [11]", "value": "36.3 µM (active)"}]}
